Data from PubChem BioAssay (NCI).
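These data come from cells grown in 96-well plates and exposed to compound for 48 hours at five concentrations. GI50 marks 50% less growth. TGI is the concentration that stops growth completely.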

Experiments:
Assay in all cases: NCI anticancer screen, dose series, 48 h
A549 NSCLC = system: A549 NSCLC
HCT-15 colon = system: HCT-15 colon
SF-295 CNS = system: SF-295 CNS
786-0 renal = system: 786-0 renal
SK-MEL-5 melanoma = system: SK-MEL-5 melanoma
K-562 leukemia = system: K-562 leukemia
CAKI-1 renal = system: CAKI-1 renal
NCI-H226 lung = system: NCI-H226 lung
T-47D breast = system: T-47D breast
SK-MEL-28 melanoma = system: SK-MEL-28 melanoma

Row | SMILES | TGI (A549 NSCLC) [µM] | TGI (HCT-15 colon) [µM] | TGI (SF-295 CNS) [µM] | TGI (786-0 renal) [µM] | TGI (SK-MEL-5 melanoma) [µM] | TGI (K-562 leukemia) [µM] | TGI (CAKI-1 renal) [µM] | TGI (NCI-H226 lung) [µM] | TGI (T-47D breast) [µM] | TGI (SK-MEL-28 melanoma) [µM] | GI50 (SK-MEL-28 melanoma) [µM] | GI50 (A549 NSCLC) [µM] | GI50 (HCT-15 colon) [µM] | GI50 (SF-295 CNS) [µM] | GI50 (SK-MEL-5 melanoma) [µM] | GI50 (K-562 leukemia) [µM] | GI50 (CAKI-1 renal) [µM] | GI50 (NCI-H226 lung) [µM] | GI50 (T-47D breast) [µM]
1 | CCCC(CCC(=O)O)(CCC(=O)O)[N+](=O)[O-] | > 100 | > 100 | > 100 | > 100 | > 100 | > 100 | > 100 | > 100 | > 100 |  |  |  |  |  |  |  |  |  | 
2 | O=S1(=O)OCCOS(=O)(=O)C1C1c2ccccc2-c2ccccc21 | > 100 | > 100 | > 100 | > 100 | > 100 | > 100 | 98.5 | > 100 | > 100 | > 100 |  |  |  |  |  |  |  |  | 
3 | COc1ccc2nc3c(nc2c1)C(C)(C)C=C3c1ccc(Br)cc1 | > 100 | > 100 |  | > 100 | > 100 |  | > 100 | > 100 | > 100 |  |  |  |  |  |  |  |  |  | 
4 | Clc1ccc(CCNCCNC2(c3cc4ccccc4s3)CCCCC2)cc1Cl | 3.81 | 3.61 | 3.04 | 3.65 | 3.12 | 4.52 | 3.42 | 3.64 | 4.07 | 3.24 |  |  |  |  |  |  |  |  | 
5 | COc1ccc2cc(CNCCOCCOCCNCc3ccc4cc(OC)ccc4c3)ccc2c1 | 3.12 | 1.63 | 2.59 | 2.19 | 1.81 | 1.92 | 3.22 | 3.09 | 3.22 | 2.69 |  |  |  |  |  |  |  |  | 
6 | C1=Nc2ccc(cc2)-c2ccc(cc2)N=Cc2ccccc2OCc2cccc(n2)COc2ccccc21 | > 100 | > 100 | > 75.9 | 33.1 | > 100 | > 100 | > 100 | > 100 | > 100 | > 100 |  |  |  |  |  |  |  |  | 
7 | COc1ccc(C2=Nn3c(nc4sc5c(c4c3=O)CCCC5)SC2)cc1 | > 100 | > 100 | > 100 | > 100 | > 100 | > 100 | > 100 | > 100 | > 100 | > 100 |  |  |  |  |  |  |  |  | 
8 | CCOC(=O)C1=C(C)NC(c2ccccc2)=C(C(=O)OCc2ccccc2)C1C#Cc1ccccc1 (stereo not drawn) |  | > 100 | > 100 | > 100 | > 100 | > 100 | 57.4 | > 100 | > 100 |  |  |  |  |  |  |  |  |  | 
9 | CN1CN(c2ccccc2)C2(CCN(C(=O)OC(C)(C)C)CC2)C1=O | > 100 | > 100 | > 100 | > 100 | > 100 | > 100 | > 100 | > 100 | > 100 | > 100 |  |  |  |  |  |  |  |  | 
10 | Cn1c(SCc2ccc([N+](=O)[O-])cc2)nnc1C12CC3CC(CC(C3)C1)C2 | > 10 | > 10 | > 10 | > 10 | > 10 | > 10 | > 10 | > 10 | > 10 | > 10 |  |  |  |  |  |  |  |  | 
11 | Cc1ccnc2[nH]c(-c3ccc(Cl)cc3)cc(=O)c12 | > 100 | > 100 | > 100 | > 100 | > 100 | 60 | > 100 | > 30.7 | > 100 | > 100 |  |  |  |  |  |  |  |  | 
12 | CCc1c[n+]2c(cc1C1=CN3c4ccccc4[C@]45CCN6C/C(=C/CO)[C@H](C[C@H]64)[C@@H]([C@@H]1O)[C@H]35)-c1[nH]c3ccccc3c1CC2 | > 50 | > 50 | > 50 | > 50 | > 50 | > 50 | > 50 | > 50 | > 50 | > 50 |  |  |  |  |  |  |  |  | 
13 | Nc1nc(Cl)cc(Oc2ccc(Cl)cc2)n1 | > 100 | > 100 | > 100 | > 100 | > 100 | > 100 | > 100 | > 100 | > 100 | > 100 |  |  |  |  |  |  |  |  | 
14 | C#CCn1c(=O)c2cc(OC)c(OC)cc2n(CC#C)c1=O | > 10 | > 10 | > 10 | > 10 | > 10 | > 10 | > 10 | > 10 | > 10 | > 10 |  |  |  |  |  |  |  |  | 
15 | CN1C(=O)c2c(c3c4ccccc4n(C)c3c3c2c2ccccc2n3C)C1=O | > 100 | > 100 | > 100 | > 100 | > 100 | > 100 | > 100 | > 100 | > 100 | > 100 |  |  |  |  |  |  |  |  | 
16 | Cc1[nH]c(-c2ccccc2)c(O)c1C(=O)OC1CC(C)CCC1C(C)C (stereo not drawn) | 26.2 | 32.1 | 24.8 | 28.6 | 30.2 | > 100 | 32.2 | 30.9 | 26.8 | 29.8 |  |  |  |  |  |  |  |  | 
17 | Clc1cccc(C=NC23CC4CC(CC(C4)C2)C3)c1Cl | > 10 | > 10 | > 10 | > 10 | > 10 | > 10 | > 10 | > 10 | > 10 | > 10 |  |  |  |  |  |  |  |  | 

Row | SMILES | TGI (A549 NSCLC) [µM] | TGI (HCT-15 colon) [µM] | TGI (SF-295 CNS) [µM] | TGI (786-0 renal) [µM] | TGI (SK-MEL-5 melanoma) [µM] | TGI (K-562 leukemia) [µM] | TGI (CAKI-1 renal) [µM] | TGI (NCI-H226 lung) [µM] | TGI (T-47D breast) [µM] | TGI (SK-MEL-28 melanoma) [µM] | GI50 (SK-MEL-28 melanoma) [µM] | GI50 (A549 NSCLC) [µM] | GI50 (HCT-15 colon) [µM] | GI50 (SF-295 CNS) [µM] | GI50 (SK-MEL-5 melanoma) [µM] | GI50 (K-562 leukemia) [µM] | GI50 (CAKI-1 renal) [µM] | GI50 (NCI-H226 lung) [µM] | GI50 (T-47D breast) [µM]
18 | CSCCC(NOC(=O)Cc1ccccc1)P(=O)(O)c1ccccc1 (stereo not drawn) | > 100 | > 100 | > 100 |  | > 100 | > 100 | > 100 | > 100 | > 100 | > 100 |  |  |  |  |  |  |  |  | 
19 | C=C1C(O)C2OC(=O)C(=C)C2C(OC(=O)/C(C)=C/C)CC2(C)OC2C2OC12 (stereo not drawn) | > 100 | 14.5 | 50.9 | 42.5 | > 100 |  | 26.9 | > 100 | > 100 | > 100 |  |  |  |  |  |  |  |  | 
20 | COc1cc(/C=[N+](\[O-])c2ccccc2Cl)ccc1OC(=S)S | > 100 | > 100 | > 100 | > 100 | 38.2 | > 100 | > 100 | > 100 | 53.4 | > 100 |  |  |  |  |  |  |  |  | 
21 | CCOC(=O)/C(C(N)=O)=C(/O)c1cnccn1 | > 100 | > 100 | > 100 | > 100 | > 100 | > 100 | > 100 | > 100 | > 100 | > 100 |  |  |  |  |  |  |  |  | 
22 | O=C(NC1CCCCC1)N1CCNC1=S | > 100 | > 100 | > 100 | > 100 | > 100 | > 100 | > 100 | > 100 | > 100 | > 100 |  |  |  |  |  |  |  |  | 
23 | Cc1ccc(S(=O)(=O)N(CC(O)COc2ccccc2)c2ccccc2Cl)cc1 (stereo not drawn) | 27.9 | 29.3 | 43.5 | 32.4 | 27.8 | 36.1 | 44.3 | 32.3 | 69.7 | 29.1 |  |  |  |  |  |  |  |  | 
24 | CCOC(=O)C(NS(=O)(=O)c1ccccc1)(C(F)(F)F)P(=O)(OCC(C)C)OCC(C)C (stereo not drawn) | > 100 | > 100 | > 100 | > 100 | > 100 | > 100 | > 100 | > 100 | > 100 | > 100 |  |  |  |  |  |  |  |  | 
25 | CN(C)CC(O)CNC(=O)Nc1ccccc1 (stereo not drawn) | > 100 | > 100 | > 100 | > 100 | > 100 | > 100 | > 100 | > 100 | > 100 | > 100 |  |  |  |  |  |  |  |  | 
26 | COc1cc2ccnc3c2c(c1OC)N(C)C=C3 | 41 | > 100 | 78.3 | 53.6 |  | 65.5 | 44.8 | 54.1 | > 100 | > 100 |  |  |  |  |  |  |  |  | 
27 | O=C(/C=C/c1cc2ccccc2[nH]c1=O)c1ccc(O)cc1 | 11.8 | 12.8 | 44 |  | 13.3 | > 100 | > 100 | 10.9 | 20.4 | 19.5 | 5.11 | 2.73 | 2.71 | 7.04 | 3.98 | 3.89 | 4.71 | 3.29 | 4.19
28 | CNC(=O)/C(C#N)=C(\N)N1CCCC1 | > 100 | > 100 |  | > 100 | > 100 | > 100 | > 100 | > 100 | > 100 | > 100 |  |  |  |  |  |  |  |  | 
29 | OC[C@@H](O)[C@H](O)[C@H](O)[C@@H](O)C1SCCCS1 | > 100 | > 100 | > 100 | > 100 | > 100 |  | > 100 | > 100 | > 100 | > 100 |  |  |  |  |  |  |  |  | 
30 | N#Cc1ccccc1C#C/C=C\C#Cc1ccccn1 | 56.5 | 70 | 52.7 | 41.9 | 12.9 | > 100 | 83.1 |  | 62.5 | 36 |  |  |  |  |  |  |  |  | 
31 | Cc1ccc2c(=O)cc(-c3ccccc3)[nH]c2n1 | > 100 | 6.3 |  | > 86 | 18.7 | 6.57 | > 72.9 | 9.69 | > 100 | > 100 |  |  |  |  |  |  |  |  | 
32 | O=C(O)Cn1cnc2c(=O)[nH]c(Nc3ccccc3)nc21 | > 100 | > 100 | > 100 | > 100 | > 100 |  | > 100 | > 100 | > 100 | > 100 |  |  |  |  |  |  |  |  | 
33 | COC(=O)[C@@]1(Cc2ccc(OC(C)=O)cc2)Cc2cc3ccccc3n2N1 | > 100 | > 100 | > 100 | > 100 | 37.1 |  | > 100 | > 100 | > 100 | > 100 |  |  |  |  |  |  |  |  | 
